According to patent US11078203B2 (OGEDA SA, priority 2017, dated 2021):

Key:
[1] = target: T1, human NK-3 receptor (Homo sapiens, UniProt P29371); assay: cell-based
T1 sequence (P29371 1-465): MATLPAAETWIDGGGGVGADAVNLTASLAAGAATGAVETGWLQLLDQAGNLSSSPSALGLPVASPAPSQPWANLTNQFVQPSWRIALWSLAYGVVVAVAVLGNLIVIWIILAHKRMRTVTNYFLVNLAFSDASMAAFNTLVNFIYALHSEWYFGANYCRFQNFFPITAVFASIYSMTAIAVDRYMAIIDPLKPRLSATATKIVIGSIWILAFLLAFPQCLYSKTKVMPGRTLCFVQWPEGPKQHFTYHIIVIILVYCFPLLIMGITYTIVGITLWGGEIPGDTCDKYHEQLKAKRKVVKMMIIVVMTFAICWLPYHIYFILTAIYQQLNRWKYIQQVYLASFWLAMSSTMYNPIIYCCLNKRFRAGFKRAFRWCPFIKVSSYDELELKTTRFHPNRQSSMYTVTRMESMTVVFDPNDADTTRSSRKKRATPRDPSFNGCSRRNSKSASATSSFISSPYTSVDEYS
Method: Aequorin Assay with Human NK-3 Receptor.
The efficacy of compounds of the invention to inhibit NKA-mediated NK-3 receptor activation was assessed by an in vitro Aequorin functional assay. Chinese Hamster Ovary recombinant cells expressing the human NK-3 receptor and a construct that encodes the photoprotein apoaequorin were used for this assay. In the presence of the cofactor coelenterazine, apoaequorin emits a measurable luminescence that is proportional to the amount of intracellular (cytoplasmic) free calcium.
The antagonist activity of compounds of the invention is measured following pre-incubation (3 minutes) of the compound (at various concentrations) with the cells, followed by addition of the reference agonist (NKA) at a final concentration equivalent to the EC80 (3 nM) and recording of emitted light (FDSS 6000 Hamamatsu) over the subsequent 90-second period. The intensity of the emitted light is integrated using the reader software. Compound antagonist activity is measured based on the concentration-dependent inhibition of the luminescence response to the addition of Neurokinin A.

[2] = target: T1, human NK-3 receptor; assay: 3H-SB222200 binding competition assay with human NK-3 receptor; design: expressed in transfected cells; membranes; conditions: read-out: Competitive binding assay with human NK-3 receptor hNK-3 (Ki)
Method: The affinity of compounds of the invention for the human NK-3 receptor was determined by measuring the ability of compounds of the invention to competitively and reversibly displace a well-characterized NK-3 radioligand in a concentration-dependent manner.
Membranes were prepared from Chinese hamster ovary recombinant cells stably expressing the human NK-3 receptor. The membranes were incubated with 5 nM ^3H-SB222200 (ARC) in a HEPES 25 mM/NaCl 0.1M/CaCl2 1 mM/MgCl2 5 mM/BSA 0.5%/Saponin 10 μg/ml buffer at pH 7.4 and various concentrations of compounds of the invention. The amount of ^3H-SB222200 bound to the receptor was determined after filtration by the quantification of membrane associated radioactivity using the TopCount-NXT reader (Packard).

With [2H]C([2H])([2H])c1nsc(-c2nnc3n2CCN(C(=O)c2ccc(F)cc2)[C@@H]3C)n1 [Deuterated fezolinetant, (R)-(4-fluorophenyl)-(8-methyl-3-(3-(methyl-d3)-1,2,4-thiadiazol-5-yl)-5,6-dihydro-[1,2,4]trizolo[4,3-a]pyrazin-7(8H)-yl)methanone] the IC50 [1] was 13 nM and the Ki [2] was 17 nM.
